Consider nine compounds from patent US20240376154A1, “BIS-INTERCALATING PEPTIDES, CONJUGATES AND METHODS OF USE” (ZYMEWORKS BC INC., priority 2023, published 2024).

Data set [1] deals with tumour cells (at least 4 of a panel of ovarian, breast, lung, pancreatic, placenta, colon cell lines). Description: In vitro cytotoxicity (cell proliferation, CellTiter-Glo), average over tumour cell line panel. The format is cell-based. To be noted: average pIC50 on all cell lines tested; 5 nights incubation; CellTiter-Glo. The method, then:
The ability of representative compounds of Formula I to inhibit proliferation of tumour cells in vitro was evaluated in at least 4 of the following cell lines: OVCAR-3 (ovarian, ATCC), SKOV-3 (ovarian, ATCC), IGROV-1 (ovarian, national research council of Canada (NRC)), OV-90 (ovarian, ATCC), OVKATE (Ovarian, Japanese Collection of Research Bioresources (JCRB) (JCRB1044)), JIMT-1 (breast, NRC), SK-BR-3 (breast, ATCC), T-47D (breast, ATCC), ZR-75-1 (breast, ATCC), MDA-MB-468 (breast, AddexBio), BT-20 (breast, ATCC), BT-474 (breast, NRC), MDA-MB-175 (breast, AddexBio), A549 (lung, collaborator), NCI-H226 (lung, NRC), NCI-H661 (lung, NRC), NCI-H1573 (lung, ATCC). NCI-H1563 (lung, ATCC), H358 (lung, collaborator), EBC-1 (lung, Xenotech), H1299 (lung, NRC), NCI-H292 (lung, ATCC), HCC817 (lung, ATCC), NCI-H441 (lung, ATCC), MIA-PaCa-2 (pancreatic, ATCC), BxPC-3 (pancreatic, ATCC), Panc-1 (pancreatic, ATCC), AsPC-1 (pancreatic, ATCC), JEG-3 (placenta, AddexBio), HT-29 (colon, ATCC).
Cells were cultured per vendor instructions and in log-phase growth were detached by brief incubation in 0.05% trypsin, then resuspended in respective culturing media at 20,000 cells/mL (except for ZR-75 cells, which were resuspended at 10,000 cells/mL). 50 μL/well (˜1000 cells/well) were transferred to sterile tissue culture (TC)-treated 384-well plates (ThermoFisher Scientific, Catalogue #164610) and incubated overnight at 37° C. with 5% CO2 to allow the cells to adhere to the plate surface. The next day, in a sterile, V-bottom, 96-well plate, test articles were titrated 1:3 in complete growth medium, creating a 10-point dose response titration with compounds at 3.5-times the desired final concentration. 20 μL from each dilution were added to the 384-well plate containing the seeded cells and these plates were incubated at 37° C. with 5% CO2 for 5 nights. Cell viability was quantified by first incubating with 15 μL/well of CellTiter-Glo® (Promega, Catalogue #G7572) for 30 minutes, then measuring luminescence with a microplate luminometer (BioTek® Synergy™ H1 Microplate Reader). IC50 values were determined by GraphPad Prism (GraphPad Software, San Diego, CA).
The results are presented in Table 7.1 and discussed in Example 7. Table 7.1 presents the results as average pIC50 values. pIC50=−log (IC50), thus, for example, pIC50=9 is equivalent to IC50=1 nM, and pIC50=6 is equivalent to IC50=1 μM.
In general terms: In ATP-based viability assays light output follows the ATP content of the culture.

Data set [2] is described as follows: Lipophilicity by experimental HPLC retention time. The format is physicochemical. To be noted: HPLC retention time as measure of lipophilicity; C18, 10 to 90% CH3CN/H2O with 0.1% FA over 25 min. The method, then: The ability to kill neighboring cells (i.e. bystander effect) is an important property for ADC payloads. For a payload comprising a compound of Formula I to be capable of bystander killing, membrane permeability (or transport) is required and the ability of compounds of Formula I to cross cell membranes and exert a cytotoxic effect was expected to be heavily influenced by lipophilicity.
Compounds were analyzed using an Agilent 1260 HPLC (Agilent Technologies, Inc., Santa Clara, CA) equipped with a Diode array detector and using a Phenomenex Kinetex EVO C18 150×4.6, 2.6 μm column (Phenomenex, Torrance, CA), eluting with 10 to 90% CH3CN/H2O with 0.1% FA over 25 min.

In the case of `CC(C)[C@H]1C(=O)NC[C@@H](NC(=O)c2nc3ccccc3cc2O)C(=O)N2CCCC[C@H]2C(=O)NCC(=O)N(C)CC(=O)N(C)[C@@H](c2ccccc2)C(=O)NC[C@@H](NC(=O)c2nc3ccccc3cc2O)C(=O)N2CCCC[C@H]2C(=O)NCC(=O)N(C)CC(=O)N1C` [Compound 103, N,N′-((7R,11S,19aS,26R,30S,38aS)-11-isopropyl-12,15,31,34-tetramethyl-6,10,13,16,19,25,29,32,35,38-decaoxo-30-phenylhexatriacontahydro-2H,6H-dipyrido[1,2-a:1′,2′-q][1,4,7,10,13,17,20,23,26,29]decaazacyclodotriacontine-7,26-diyl)bis(3-hydroxyquinoline-2-carboxamide)], in data set [1], the “pIC50 (average)” value was 7.3. For the same compound, in data set [2], the “HPLC” value amounted to 17.2 min.

Regarding `CC(C)[C@H]1C(=O)NC[C@@H](NC(=O)c2nc3ccccc3cc2O)C(=O)N2CCCC[C@H]2C(=O)NCC(=O)N(C)CC(=O)N(C)C2(CC2)C(=O)NC[C@@H](NC(=O)c2nc3ccccc3cc2O)C(=O)N2CCCC[C@H]2C(=O)NCC(=O)N(C)CC(=O)N1C` [Compound 109, N,N′-((7′R,19a'S,26′R,30'S,38a'S)-30′-isopropyl-12′,15′,31′,34′-tetramethyl-6′,10′,13′,16′,19′,25′,29′,32′,35′,38′-decaoxotetratriacontahydro-2′H,6′H,12′H-spiro[cyclopropane-1,11′-dipyrido[1,2-a:1′,2′-q][1,4,7,10,13,17,20,23,26,29]decaazacyclodotriacontine]-7′,26′-diyl)bis(3-hydroxyquinoline-2-carboxamide)], in data set [1], the “pIC50 (average)” value came to 7.77. In addition, in data set [2], the “HPLC” value was determined as 15.4 min.

Turning to `CC(C)[C@H]1C(=O)NC[C@@H](NC(=O)c2nc3ccccc3cc2O)C(=O)N2CCCC[C@H]2C(=O)NCC(=O)N(C)CC(=O)N(C)C(C)(C)C(=O)NC[C@@H](NC(=O)c2nc3ccccc3cc2O)C(=O)N2CCCC[C@H]2C(=O)NCC(=O)N(C)CC(=O)N1C` [Compound 115, N,N′-((7R,19aS,26R,30S,38aS)-30-isopropyl-11,11,12,15,31,34-hexamethyl-6,10,13,16,19,25,29,32,35,38-decaoxohexatriacontahydro-2H,6H-dipyrido[1,2-a:1′,2′-q][1,4,7,10,13,17,20,23,26,29]decaazacyclodotriacontine-7,26-diyl)bis(3-hydroxyquinoline-2-carboxamide)], the “pIC50 (average)” value in data set [1] was “Inactive”. Moreover, in data set [2], the “HPLC” value is on record as 15.8 min.

As to `CC(C)[C@H]1C(=O)NC[C@@H](NC(=O)c2nc3ccccc3cc2O)C(=O)N2CCCC[C@H]2C(=O)NCC(=O)N(C)CC(=O)N(C)C2(CCC2)C(=O)NC[C@@H](NC(=O)c2nc3ccccc3cc2O)C(=O)N2CCCC[C@H]2C(=O)NCC(=O)N(C)CC(=O)N1C` [Compound 121, N,N′-((7′R,19a'S,26′R,30'S,38a'S)-30′-isopropyl-12′,15′,31′,34′-tetramethyl-6′,10′,13′,16′,19′,25′,29′,32′,35′,38′-decaoxotetratriacontahydro-2′H,6′H,12′H-spiro[cyclobutane-1,11′-dipyrido[1,2-a:1′,2′-q][1,4,7,10,13,17,20,23,26,29]decaazacyclodotriacontine]-7′,26′-diyl)bis(3-hydroxyquinoline-2-carboxamide)], in data set [1], the “pIC50 (average)” value is reported as 8.18. In addition, the “HPLC” value in data set [2] is 17.0 min.

Take `CC[C@H](C)[C@H]1C(=O)NC[C@@H](NC(=O)c2nc3ccc(Br)cc3cc2O)C(=O)N2CCCC[C@H]2C(=O)NCC(=O)N(C)CC(=O)N(C)[C@@H]([C@@H](C)CC)C(=O)NC[C@@H](NC(=O)c2nc3ccc(Br)cc3cc2O)C(=O)N2CCCC[C@H]2C(=O)NCC(=O)N(C)CC(=O)N1C` [Compound 127, N,N′-((7R,11S,19aS,26R,30S,38aS)-11,30-di((S)-sec-butyl)-12,15,31,34-tetramethyl-6,10,13,16,19,25,29,32,35,38-decaoxohexatriacontahydro-2H,6H-dipyrido[1,2-a:1′,2′-q][1,4,7,10,13,17,20,23,26,29]decaazacyclodotriacontine-7,26-diyl)bis(6-bromo-3-hydroxyquinoline-2-carboxamide)]: the “pIC50 (average)” value in data set [1] is listed as 8.7. The “HPLC” value in data set [2] is reported as 21.0 min.

Turning to `CCN1C(=O)CN(C)C(=O)CNC(=O)[C@@H]2CCCCN2C(=O)[C@H](NC(=O)c2nc3ccccc3cc2O)CNC(=O)[C@H](C(C)C)N(CC)C(=O)CN(C)C(=O)CNC(=O)[C@@H]2CCCCN2C(=O)[C@H](NC(=O)c2nc3ccccc3cc2O)CNC(=O)[C@@H]1C(C)C` [Compound 147, N,N′-((7R,11S,19aS,26R,30S,38aS)-12,31-diethyl-11,30-diisopropyl-15,34-dimethyl-6,10,13,16,19,25,29,32,35,38-decaoxohexatriacontahydro-2H,6H-dipyrido[1,2-a:1′,2′-q][1,4,7,10,13,17,20,23,26,29]decaazacyclodotriacontine-7,26-diyl)bis(3-hydroxyquinoline-2-carboxamide)], the “pIC50 (average)” value in data set [1] was 8.5. Moreover, the “HPLC” value in data set [2] came to 17.9 min.

As to `CN1CC(=O)N2CCCCC[C@H]2C(=O)NC[C@@H](NC(=O)c2nc3ccccc3cc2O)C(=O)N2CCCC[C@H]2C(=O)NCC(=O)N(C)CC(=O)N2CCCCC[C@H]2C(=O)NC[C@@H](NC(=O)c2nc3ccccc3cc2O)C(=O)N2CCCC[C@H]2C(=O)NCC1=O` [Compound 157, N,N′-((7R,10aS,23aS,30R,33aS,46aS)-19,42-dimethyl-6,10,17,20,23,29,33,40,43,46-decaoxotetratetracontahydro-6H,29H-bis(azepino) [1,2-j:1′,2′-z]dipyrido[1,2-a:1′,2′-q][1,4,7,10,13,17,20,23,26,29]decaazacyclodotriacontine-7,30-diyl)bis(3-hydroxyquinoline-2-carboxamide)], in data set [1], the “pIC50 (average)” value was found to be 7.1. In data set [2], the “HPLC” value is on record as 15.8 min.

For `CN1CC(=O)N(C)[C@@H](C2CCCCC2)C(=O)NC[C@@H](NC(=O)c2nc3ccccc3cc2O)C(=O)N2CCCC[C@H]2C(=O)NCC(=O)N(C)CC(=O)N(C)[C@@H](C2CCCCC2)C(=O)NC[C@@H](NC(=O)c2nc3ccccc3cc2O)C(=O)N2CCCC[C@H]2C(=O)NCC1=O` [Compound 162, N,N′-((7R,11S,19aS,26R,30S,38aS)-11,30-dicyclohexyl-12,15,31,34-tetramethyl-6,10,13,16,19,25,29,32,35,38-decaoxohexatriacontahydro-2H,6H-dipyrido[1,2-a:1′,2′-q][1,4,7,10,13,17,20,23,26,29]decaazacyclodotriacontine-7,26-diyl)bis(3-hydroxyquinoline-2-carboxamide)], the “pIC50 (average)” value in data set [1] is 9.1. The “HPLC” value in data set [2] is given as 20.7 min.

Take `CC[C@H](C)[C@H]1COC[C@@H](NC(=O)c2nc3ccccc3cc2O)C(=O)N2CCCC[C@H]2C(=O)NCC(=O)N(C)CC(=O)N(C)[C@@H](C(C)C)C(=O)NC[C@@H](NC(=O)c2nc3ccccc3cc2O)C(=O)N2CCCC[C@H]2C(=O)NCC(=O)N(C)CC(=O)N1C` [Compound 197, N,N′-((7R,11S,19aS,26R,30S,38aS)-11-((S)-sec-butyl)-30-isopropyl-12,15,31,34-tetramethyl-6,13,16,19,25,29,32,35,38-nonaoxotetratriacontahydro-2H,6H,10H-dipyrido[2,1-b1: 2′,1′-l][1]oxa[4,7,10,13,17,20,23,26,29]nonaazacyclodotriacontine-7,26-diyl)bis(3-hydroxyquinoline-2-carboxamide)]: the “pIC50 (average)” value in data set [1] is 9.4. Further, the “HPLC” value in data set [2] worked out at 19.4 min.
